Data on 30 compounds can be found in patent US10526291B2, “Potent dual BRD4-kinase inhibitors as cancer therapeutics” (H. Lee Moffitt Cancer Center and Research Institute, Inc., priority 2014, dated 2020).

Where “and” joins values, the source holds several entries; their conditions need not be identical. Equal values may be shown once.

In one test the test system is MM.1S cells. The experiment in a line: MM.1S cell survival, MTT assay. It counts as cell-based. Conditions: Homo sapiens, MM1.S, 72 h, 72 hours compound exposure. Background: Tetrazolium dyes change colour on reduction, which living cells bring about.
The next test concerns SAOS-2. The experiment in a line: SAOS-2 cell IC50. Type of test: cell-based. Particulars: Homo sapiens.
For a further test, the target named is BRD4 (Homo sapiens, UniProt O60885). The experiment in a line: Differential Scanning Fluorimetry (DSF), stability of BRD4 upon ligand binding. Conditions: for ΔTm at 4 µM / DSF ΔTm (° C.): 100 μM protein, 4 μM compound and 2% DMSO; for IC50: estimated. The method, then: DSF=Differential Scanning Fluorimetry; provides a measure of the increased stability of BRD4 upon ligand binding The DSF experiment was run at 100 μM protein, 4 μM compound and 2% DMSO.

A further test deals with HEK293. The experiment in a line: HEK293 cell IC50. It counts as cell-based. Particulars: Homo sapiens.
The subject of another test is c-Myc in MM.1S cells. Particulars: literature; cited from earlier work.
The test system of another test is UKE-1. The experiment in a line: UKE-1 cell IC50. Type of test: cell-based. Conditions: UKE1.
For the next test, the system named is MV4-11 AML cells. The experiment in a line: MV-4-11 cell IC50 (antiproliferative activity). Type of test: cell-based. Particulars: Homo sapiens. As for the experimental part:
Cellular activity of promising compounds is assessed using MM.1S and MV4-11 AML cells using c-Myc levels as biomarker (6-12 hr treatment) and antiproliferative activity (48-72 hr treatment) as described (Ciceri et al., Dual kinase-bromodomain inhibitors for rationally designed polypharmacology. Nat Chem Biol 2014).

The target of the next test is T1, JAK2 (Homo sapiens, UniProt O60674).
T1 construct: purchased
The experiment in a line: JAK2 IC50 (RB, commercial kinase panel). It counts as biochemical.

T1 sequence (O60674 whole entry): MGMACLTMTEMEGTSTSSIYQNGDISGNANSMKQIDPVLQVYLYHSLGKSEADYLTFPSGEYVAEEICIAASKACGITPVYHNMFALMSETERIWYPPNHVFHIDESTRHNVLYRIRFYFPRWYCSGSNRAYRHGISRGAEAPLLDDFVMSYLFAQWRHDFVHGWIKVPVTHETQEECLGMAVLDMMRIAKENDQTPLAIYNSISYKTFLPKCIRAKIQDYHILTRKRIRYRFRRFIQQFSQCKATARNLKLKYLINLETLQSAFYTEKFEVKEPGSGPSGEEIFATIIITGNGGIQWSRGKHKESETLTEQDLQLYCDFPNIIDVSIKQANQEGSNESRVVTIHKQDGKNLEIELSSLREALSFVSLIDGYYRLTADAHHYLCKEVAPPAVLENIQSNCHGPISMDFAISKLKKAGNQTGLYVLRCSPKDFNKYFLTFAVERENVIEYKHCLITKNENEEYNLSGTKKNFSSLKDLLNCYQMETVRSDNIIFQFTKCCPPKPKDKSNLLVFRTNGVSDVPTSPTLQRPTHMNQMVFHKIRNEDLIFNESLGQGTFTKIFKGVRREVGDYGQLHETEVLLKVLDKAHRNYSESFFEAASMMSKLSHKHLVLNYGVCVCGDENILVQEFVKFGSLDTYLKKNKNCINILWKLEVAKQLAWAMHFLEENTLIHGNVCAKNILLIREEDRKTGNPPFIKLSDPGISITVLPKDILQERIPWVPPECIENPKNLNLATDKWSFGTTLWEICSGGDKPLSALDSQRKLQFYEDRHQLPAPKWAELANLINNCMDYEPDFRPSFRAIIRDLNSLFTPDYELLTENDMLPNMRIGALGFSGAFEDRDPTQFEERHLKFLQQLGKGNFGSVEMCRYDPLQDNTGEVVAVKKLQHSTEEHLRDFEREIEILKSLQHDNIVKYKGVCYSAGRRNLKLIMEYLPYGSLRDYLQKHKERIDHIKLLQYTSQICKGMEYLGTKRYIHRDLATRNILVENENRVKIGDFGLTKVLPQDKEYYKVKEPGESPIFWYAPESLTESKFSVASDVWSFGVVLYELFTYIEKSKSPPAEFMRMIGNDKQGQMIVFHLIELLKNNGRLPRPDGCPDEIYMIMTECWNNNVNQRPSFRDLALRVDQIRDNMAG

Usually IC50 stands for the concentration at which inhibition is half-maximal. One may read the ΔTm as the shift of the melting midpoint relative to a reference. As to `CN1CCN(c2ccc(Nc3nc4c(c(Nc5cccc(NS(=O)(=O)C(C)(C)C)c5)n3)CCCC4)cc2)CC1`, the IC50 was 1700 nM in the test on MM.1S cells, 2500 nM in the test on SAOS-2 and 110 nM at BRD4. For the same compound, the ΔTm at 4 µM at BRD4 worked out at 6.9 ± 0.038 °C.

Turning to `COc1cc(Nc2nc(Nc3ccc(N4CCN(C)CC4)cc3)nc3ccccc23)ccc1Cl`, at BRD4, the ΔTm at 4 µM worked out at 4.9 ± 0.13 °C and the IC50 was 500 nM. Moreover, in the test with HEK293, the IC50 was found to be 1700 nM.

In the case of `Cc1cnc(Nc2ccc(OCCN3CCCC3)cc2)nc1Nc1cccc(S(=O)(=O)NC(C)(C)C)c1` [TG101348], the “downregulation of c-Myc” value with c-Myc in MM.1S cells is recorded as “strong downregulation of c-Myc”.

Regarding `COc1cc(Nc2nc(Nc3ccc(N4CCN(C)CC4)cc3)nc(C)c2C)cc(OC)c1OC`, the IC50 was 5600 nM in the test on MM.1S cells, 230 nM at BRD4 and 1400 nM in the test on HEK293. The ΔTm at 4 µM on BRD4 was found to be 5.9 ± 0.14 °C.

Regarding `Cc1cnc(Nc2ccc(N3CCN(C)CC3)cc2)nc1Nc1cccc(S(=O)(=O)NC(C)(C)C)c1` [drawing 27], the IC50 in the test with SAOS-2 is 425 nM. Moreover, on BRD4, the “DSF ΔTm (° C.)” value was found to be 7.55 ± 0.154 °C and the thermal shift (ΔTm) at 4 µM came out at 6.83 ± 0.129 °C.

Turning to `COc1cc(Nc2nc(Nc3ccc(N4CCN(C)CC4)cc3)ncc2C)cc(OC)c1Cl`, the half-inhibitory concentration (IC50) was 1100 nM with MM.1S cells and 63 nM at BRD4. Besides, the shift in melting temperature (ΔTm) at 4 µM on BRD4 amounted to 7.6 ± 0.15 °C.

For the compound `COc1cc(Nc2nc(Nc3ccc(N4CCN(C)CC4)cc3)ncc2C)cc(OC)c1OC`, at BRD4, the ΔTm at 4 µM is 6.9 ± 0.1 °C and the half-maximal inhibitory concentration (IC50) was 110 nM. In the test on HEK293, the half-maximal inhibitory concentration (IC50) was found to be 970 nM.

Take `Cc1nc(Nc2ccc(N3CCN(C)CC3)cc2)nc(Nc2cccc(S(=O)(=O)NC(C)(C)CO)c2)c1C`: the shift in melting temperature (ΔTm) at 4 µM at BRD4 was 5.5 ± 0.17 °C. The IC50 is 320 nM at BRD4 and 4300 nM in the test with HEK293.

Regarding `Cc1cnc(Nc2ccc(N3CCN(C)CC3)cc2)nc1Nc1cccc(NS(=O)(=O)C2CC2)c1`, the IC50 in the test on MM.1S cells was 600 nM; at BRD4 it was 130 nM; in the test on HEK293 it was 1000 nM. For the same compound, the ΔTm at 4 µM on BRD4 was found to be 6.7 ± 0.11 °C.

As to `Cc1cnc(Nc2ccc(C3CCN(C)CC3)cc2)nc1Nc1ccc(Cl)c(NS(=O)(=O)C(C)(C)C)c1`, the half-inhibitory concentration (IC50) was 470 nM in the test with UKE-1; 98 nM in the test on MV4-11 AML cells; 7.4 nM and 9.9 nM on BRD4. Also, the “DSF ΔTm (° C.)” value at BRD4 was 10 ± 0.11 10 ± 0.11 °C. Also, the thermal shift (ΔTm) at 4 µM at BRD4 turned out to be 10 ± 0.11 °C.

Turning to `COc1cc(Nc2nc(Nc3ccc(N4CCN(C)CC4)cc3)nc(C)c2C)ccc1Cl`, the ΔTm at 4 µM at BRD4 worked out at 4.1 ± 0.14 °C. For the same compound, the IC50 on BRD4 was 930 nM; in the test on HEK293 it was 840 nM; at JAK2 it was 14000 nM.

Turning to `CN1CCN(c2ccc(Nc3ncc(Cl)c(Nc4cccc(S(=O)(=O)NC(C)(C)CO)c4)n3)cc2)CC1`, the ΔTm at 4 µM on BRD4 stood at 6.1 ± 0.15 °C. The half-maximal inhibitory concentration (IC50) at BRD4 was 200 nM; in the test with HEK293, 1500 nM.

On to `CC[C@@H]1C(=O)N(C)c2cnc(Nc3ccc(C(=O)NC4CCN(C)CC4)cc3OC)nc2N1C1CCCC1` [BI2536], for which the “downregulation of c-Myc” value in the test with c-Myc in MM.1S cells is given as “strong downregulation of c-Myc”.

As to `COc1cc(Nc2nc(Nc3ccc(N4CCN(C)CC4)cc3)ncc2Cl)ccc1Cl`, the IC50 in the test with MM.1S cells is 450 nM; at BRD4 it was 540 nM; in the test on HEK293, 1400 nM. In addition, on BRD4, the thermal shift (ΔTm) at 4 µM amounted to 4.8 ± 0.058 °C.

With `CN1CCC(NC(=O)c2ccc(Nc3ncc(F)c(Nc4ccc(Cl)c(NS(=O)(=O)C(C)(C)C)c4)n3)cc2F)CC1`, the concentration for half-maximal inhibition (IC50) with MM.1S cells came to 120 nM. In addition, at BRD4, the thermal shift (ΔTm) at 4 µM was determined as 9.91 ± 0.039 °C and the half-inhibitory concentration (IC50) is 40.5 nM.

In the case of `COc1cc(Nc2nc(Nc3ccc(N4CCN(C)CC4)cc3)ncc2Cl)cc(OC)c1OC`, on BRD4, the ΔTm at 4 µM was found to be 5.2 ± 0.02 °C and the IC50 is 400 nM. The compound further returned a half-maximal inhibitory concentration (IC50) in the test with HEK293 of 2000 nM.

`Cc1cnc(Nc2ccc(C(=O)NC3CCN(C)CC3)cc2)nc1Nc1ccc(Cl)c(NS(=O)(=O)C(C)(C)C)c1` gave an IC50 with UKE-1 of 1600 nM. For the same compound, in the test on MV4-11 AML cells, the concentration for half-maximal inhibition (IC50) is 71 nM. For the same compound, on BRD4, the “DSF ΔTm (° C.)” value was 11 ± 0.12 11 ± 0.12 °C; the shift in melting temperature (ΔTm) at 4 µM is 11 ± 0.12 °C; the 50% inhibitory concentration (IC50) is 6.1 nM and 4.6 nM.

Regarding `CN1CCC(NC(=O)c2ccc(Nc3ncc(Cl)c(Nc4ccc(Cl)c(NS(=O)(=O)C(C)(C)C)c4)n3)cc2F)CC1`, the 50% inhibitory concentration (IC50) was 90 nM with MM.1S cells and 10.5 nM on BRD4. Also, the ΔTm at 4 µM at BRD4 amounted to 12 ± 0.5 °C.

As to `CN1CCN(c2ccc(Nc3ncc(Cl)c(Nc4cccc(S(=O)(=O)NC5CC5)c4)n3)cc2)CC1`, the IC50 is 880 nM with MM.1S cells, 160 nM on BRD4 and 1800 nM with HEK293. Also, the ΔTm at 4 µM on BRD4 amounted to 6.4 ± 0.15 °C.

`CN1CCN(c2ccc(Nc3ncc(Cl)c(Nc4cccc(NS(=O)(=O)C5CC5)c4)n3)cc2)CC1`: at BRD4, the shift in melting temperature (ΔTm) at 4 µM amounted to 6.9 ± 0.15 °C. The IC50 at BRD4 is 110 nM; in the test with HEK293, 3600 nM.

As for `Cc1nc(Nc2ccc(N3CCN(C)CC3)cc2)nc(Nc2cccc(S(=O)(=O)NC(C)(C)C)c2)c1C`, at BRD4, the thermal shift (ΔTm) at 4 µM came out at 5.3 ± 0.064 °C and the concentration for half-maximal inhibition (IC50) is 370 nM. This compound returned an IC50 in the test with HEK293 of 120000 nM.

As for `Cc1cnc(Nc2ccc(N3CCN(C)CC3)cc2)nc1Nc1cccc(S(=O)(=O)NC(C)(C)C)c1` [TG101209], the “downregulation of c-Myc” value in the test with c-Myc in MM.1S cells was “strong downregulation of c-Myc”.

On to `Cc1cnc(Nc2ccc(N3CCN(C)CC3)cc2)nc1Nc1cccc(S(=O)(=O)NC(C)(C)CO)c1`, for which, on BRD4, the ΔTm at 4 µM came to 6.5 ± 0.18 °C and the IC50 was 150 nM. This compound yielded a concentration for half-maximal inhibition (IC50) in the test on HEK293 of 3600 nM.

On to `Cc1cnc(Nc2ccc(N3CCN(C)CC3)cc2)nc1Nc1cccc(S(=O)(=O)NC2CC2)c1`, for which the IC50 in the test with MM.1S cells was 1200 nM; at BRD4, 79 nM; in the test on HEK293 it was 1200 nM. On BRD4, the ΔTm at 4 µM amounted to 7.3 ± 0.099 °C.

On to `CCOc1cc(Nc2nc(Nc3ccc(N4CCN(C)CC4)cc3)ncc2C)ccc1Cl`, for which, on BRD4, the ΔTm at 4 µM turned out to be 6.4 ± 0.0066 °C and the IC50 was 160 nM.

`CN1CCN(c2ccc(Nc3nc4c(c(Nc5cccc(S(=O)(=O)NC(C)(C)C)c5)n3)CCC4)cc2)CC1`: on BRD4, the ΔTm at 4 µM was 4.9 ± 0.11 °C and the IC50 was 500 nM.

`CN1CCN(c2ccc(Nc3nc4c(c(Nc5cccc(NS(=O)(=O)C6CC6)c5)n3)COC4)cc2)CC1`: at BRD4, the shift in melting temperature (ΔTm) at 4 µM was determined as 1.3 ± 0.12 °C and the half-inhibitory concentration (IC50) is 7900 nM.

`CCCc1cnc(Nc2ccc(N3CCN(C)CC3)cc2)nc1Nc1ccc(Cl)c(OC)c1`: at BRD4, the shift in melting temperature (ΔTm) at 4 µM is 3.1 ± 0.075 °C and the half-maximal inhibitory concentration (IC50) is 2000 nM.

For the compound `CCCS(=O)(=O)Nc1cccc(Nc2nc(Nc3ccc(N4CCN(C)CC4)cc3)ncc2C)c1`, on BRD4, the shift in melting temperature (ΔTm) at 4 µM was 6.7 ± 0.157 °C and the IC50 was 321 nM.

Take `Cc1cnc(Nc2ccc(N3CCN(C)CC3)cc2)nc1Nc1cc(NS(=O)(=O)C2CC2)cc(NS(=O)(=O)C2CC2)c1`: at BRD4, the ΔTm at 4 µM worked out at 5.3 ± 0.041 °C and the 50% inhibitory concentration (IC50) is 370 nM.
